These results are taken from patent US20040033482A1, “Device and method for the measurement of forces from living materials” (priority 2000, published 2004).

The experiment concerns fibroblasts (or smooth muscle cells). Briefly: Measurement of lateral intrinsic forces of a cell layer cultured on an elastically deformable membrane (membrane deflection read by laser). The experiment is classed as cell-based. The settings on record: for change in cell layer tension in dependence on time: FIG. 4, consecutive addition of thrombin (20, 50, 100 U/ml), EDTA (0.1% by weight, 2 min), trypsin (0.2% by weight, 15 min); for tension transmitted to the membrane (intrinsic forces): FIG. 5 and FIG. 6, addition of thrombin, then EDTA, then trypsin. As for the experimental part:
A commercially available PET membrane is adhered to an open end of a cylinder; the other end remains open. During the adhesion process, a metal ring is used to pull uniformly on the membrane, such that the membrane is then stretched so that it is completely flat but not plastically deformed. 400 μl of cell culture medium (DPBS), corresponding to a fill height of a liquid column of about 2 mm, are then applied to the membrane (having a diameter of 16 mm). Due to the culture medium, the membrane is elastically preformed, i.e. deflected, and prepared for the application of living material.
1 ml of a suspension of fibroblasts (or smooth muscle cells), containing a cell count of 5×10^4/ml (or 7×10^4/ml), is then added to the prestretched membrane and the entire device is incubated in an incubator at 37° C. for 4 days for the purpose of culturing the cells. After the culturing, the culture medium is replaced with 400 μl of fresh medium. The mounting, together with membrane and cells cultured on it, which has thus been prepared is inserted into the measuring device and the measurement is carried out using a laser beam as the sensor.
As a result of replication, the cells adhere to the membrane and form a confluent monolayer (or multilayer). In connection with this, the cells secrete, over time, an extracellular matrix (ECM).
As a result of the growth of the cells, and the tensile stress in the cell layer and in the ECM which is connected therewith, and as a result of the fact that the cells and the ECM adhere to the membrane, the membrane experiences a change in tension. As a consequence of this, the deflection of the membrane decreases and raises the fill level of the medium slightly. This change in the deflection of the membrane is determined using a laser.
In order to stimulate the cell layer(s), thrombin is added to the medium to give final concentrations of 0-100 U/ml. 20 U/ml of culture medium are added first of all. The thrombin binds to the thrombin receptors and induces cell contraction. The membrane rises further to a slight extent. In this connection, the cells contract with a time constant which is typical. After a theoretically infinite measuring time, the measured change in the deflection of the membrane reaches a typical saturation value. Further quantities of thrombin are added consecutively to the cell culture medium above the membrane in increasing order, i.e. initially 50 U/ml and then 100 U/ml. The changes in the deflection of the membrane are measured correspondingly.
In each case, the cells are permitted to develop the contraction until, in the simplest case by way of fitting an exponential function, there is no need to await the achievement of the final value but, instead, the final measurement of the achievable concentration can be approximated. This decreases the measuring time. Both the characteristic onset time for the thrombin-mediated contraction effect and the maximum contraction which can be achieved in association with this contraction can be calculated from the exponential function which has been fitted.
The cells are detached from the ECM by adding EDTA (0.1% by weight) for a reaction time of 2 min. The same volumes as the quantities of liquid which are added in this connection are simultaneously removed once again at another site in the measuring chamber. The cells become detached with a typical time constant. As a consequence of this, the tension in the membrane changes since the forces acting on the membrane as a result of the cell contraction are no longer present; this means that the membrane becomes further deflected once again. In this case, too, an exponential function is approximated and the time constant and the final value of the tension recovery can be calculated approximately.
The ECM which is adhering to the membrane still maintains a part of the tension which arose during the cell growth. Adding trypsin (0.2% by weight) for a reaction time of 15 min. degrades the ECM. […]

For the compound trypsin, the “change in cell layer tension in dependence on time” value (“change in cell layer tension” below) was “also declines” and the “tension transmitted to the membrane (intrinsic forces)” value (“tension transmitted to the membrane” below) is given as “tension in the extracellular matrix to subside”.

Take `O=C(O)CN(CCN(CC(=O)O)CC(=O)O)CC(=O)O` [EDTA]: the “change in cell layer tension” value is recorded as “intrinsic forces which are measured decrease” and the “tension transmitted to the membrane” value is recorded as “membrane relaxing”.

Consider thrombin, for which the “change in cell layer tension” value is given as “contraction of the living material can be observed to increase as the concentration of thrombin increases” and the “tension transmitted to the membrane” value is “increase markedly”.
